Key:
Format in all cases: in vivo
[1] = system: redroot pigweed (Amaranthus retroflexus); assay: Test G Pre-Emergence Protocol; conditions: Amaranthus retroflexus, pre-emergence, 312 h, evaluated after 13 days
Summary of the method: (§1)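 Scores are visual damage ratings from 0 (no damage) to 100 (total plant kill), taken 13 days after treatment. Compound was sprayed one day post-sowing at 15.625, 62.5 or 250 g/ha in 50:50 acetone/water with 0.5% Tween 20.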

[2] = system: ivy-leaved morning glory (Ipomoea hederacea); assay: Test G Pre-Emergence Protocol; conditions: Ipomoea, pre-emergence, 312 h, evaluated after 13 days
Summary of the method: as §1

corn (Zea mays) [3] = assay: Test G Pre-Emergence Protocol; conditions: Zea mays, pre-emergence, 312 h, evaluated after 13 days
Summary of the method: as §1

[4] = system: barnyardgrass (Echinochloa crus-galli); assay: Test G Pre-Emergence Protocol; conditions: Echinochloa crus-galli, pre-emergence, 312 h, evaluated after 13 days
Summary of the method: as §1

[5] = system: giant foxtail (Setaria faberi); assay: Test G Pre-Emergence Protocol; conditions: Setaria faberi, pre-emergence, 312 h, evaluated after 13 days
Summary of the method: as §1

[6] = system: velvetleaf (Abutilon theophrasti); assay: Test G Pre-Emergence Protocol; conditions: Abutilon theophrasti, pre-emergence, 312 h, evaluated after 13 days
Summary of the method: as §1

[7] = system: redroot pigweed (Amaranthus retroflexus); assay: Test G Post-Emergence Protocol; conditions: Amaranthus retroflexus, post-emergence, 312 h, read-out: Pigweed, Redroot damage rating
Summary of the method: (§2)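 Values are percent visual injury at 13 days after treatment (0 none, 100 total). Treatment was a post-emergence spray at 15.625, 62.5 or 250 g/ha on 8-day-old pot plants kept at 24/16 °C.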

[8] = system: ivy-leaved morning glory (Ipomoea hederacea); assay: Test G Post-Emergence Protocol; conditions: Ipomoea, post-emergence, 312 h, read-out: Morningglory, Ivy-leaved damage rating
Summary of the method: as §2

corn (Zea mays) [9] = assay: Test G Post-Emergence Protocol; conditions: Zea mays, post-emergence, 312 h, read-out: Corn damage rating
Summary of the method: as §2

[10] = system: barnyardgrass (Echinochloa crus-galli); assay: Test G Post-Emergence Protocol; conditions: Echinochloa crus-galli, post-emergence, 312 h, read-out: Barnyardgrass damage rating
Summary of the method: as §2

[11] = system: giant foxtail (Setaria faberi); assay: Test G Post-Emergence Protocol; conditions: Setaria faberi, post-emergence, 312 h, read-out: Foxtail, Giant damage rating
Summary of the method: as §2

[12] = system: velvetleaf (Abutilon theophrasti); assay: Test G Post-Emergence Protocol; conditions: Abutilon theophrasti, post-emergence, 312 h, read-out: Velvetleaf damage rating
Summary of the method: as §2

[13] = 15.625 g ai/ha, evaluated after 13 days (100=total damage to plant; 0=no damage to plant)
[14] = 62.5 g ai/ha, evaluated after 13 days, 100=total damage to plant, 0=no damage to plant
[15] = 250 g ai/ha, evaluated after 13 days, 100=total damage to plant, 0=no damage to plant

## CC(O)c1ccccc1NC(=O)[C@H]1C(=O)N(C)C[C@@H]1c1cccc(C(F)(F)F)c1 (mixture of isomers) [Compound 1783]
[1]; 15.625 g ai/ha, read-out: Pigweed, Redroot damage rating (100=total damage to plant; 0=no damage to plant)
  pest or weed control at 15.625 g/ha: 0%
[1]; 62.5 g ai/ha, 100=total damage to plant, 0=no damage to plant, read-out: Pigweed, Redroot damage rating
  pest or weed control at 62.5 g/ha: 0%
[1]; 250 g ai/ha, read-out: Pigweed, Redroot damage rating (100=total damage to plant; 0=no damage to plant)
  pest or weed control at 250 g/ha: 40%
[2]; 15.625 g ai/ha, read-out: Morningglory, Ivy-leaved damage rating (100=total damage to plant; 0=no damage to plant)
  pest or weed control at 15.625 g/ha: 10%
[2]; 62.5 g ai/ha, 100=total damage to plant, 0=no damage to plant, read-out: Morningglory, Ivy-leaved damage rating
  pest or weed control at 62.5 g/ha: 10%
[2]; 250 g ai/ha, read-out: Morningglory, Ivy-leaved damage rating (100=total damage to plant; 0=no damage to plant)
  pest or weed control at 250 g/ha: 40%
Corn (Zea mays) [3]; 15.625 g ai/ha, read-out: Corn damage rating (100=total damage to plant; 0=no damage to plant)
  plant injury at 15.625 g/ha: 50%
Corn (Zea mays) [3]; 62.5 g ai/ha, 100=total damage to plant, 0=no damage to plant, read-out: Corn damage rating
  plant injury at 62.5 g/ha: 80%
Corn (Zea mays) [3]; 250 g ai/ha, read-out: Corn damage rating (100=total damage to plant; 0=no damage to plant)
  plant injury at 250 g/ha: 90%
[4]; 15.625 g ai/ha, read-out: Barnyardgrass damage rating (100=total damage to plant; 0=no damage to plant)
  pest or weed control at 15.625 g/ha: 50%
[4]; 62.5 g ai/ha, 100=total damage to plant, 0=no damage to plant, read-out: Barnyardgrass damage rating
  pest or weed control at 62.5 g/ha: 90%
[4]; 250 g ai/ha, read-out: Barnyardgrass damage rating (100=total damage to plant; 0=no damage to plant)
  pest or weed control at 250 g/ha: 90%
[5]; 15.625 g ai/ha, read-out: Foxtail, Giant damage rating (100=total damage to plant; 0=no damage to plant)
  pest or weed control at 15.625 g/ha: 80%
[5]; 62.5 g ai/ha, 100=total damage to plant, 0=no damage to plant, read-out: Foxtail, Giant damage rating
  pest or weed control at 62.5 g/ha: 90%
[5]; 250 g ai/ha, read-out: Foxtail, Giant damage rating (100=total damage to plant; 0=no damage to plant)
  pest or weed control at 250 g/ha: 90%
[6]; 15.625 g ai/ha, read-out: Velvetleaf damage rating (100=total damage to plant; 0=no damage to plant)
  pest or weed control at 15.625 g/ha: 0%
[6]; 62.5 g ai/ha, 100=total damage to plant, 0=no damage to plant, read-out: Velvetleaf damage rating
  pest or weed control at 62.5 g/ha: 10%
[6]; 250 g ai/ha, read-out: Velvetleaf damage rating (100=total damage to plant; 0=no damage to plant)
  pest or weed control at 250 g/ha: 70%
[7]; [13]
  pest or weed control at 15.625 g/ha: 0%
[7]; [14]
  pest or weed control at 62.5 g/ha: 0%
[7]; [15]
  pest or weed control at 250 g/ha: 20%
[8]; [13]
  pest or weed control at 15.625 g/ha: 10%
[8]; [14]
  pest or weed control at 62.5 g/ha: 60%
[8]; [15]
  pest or weed control at 250 g/ha: 70%
Corn (Zea mays) [9]; [13]
  plant injury at 15.625 g/ha: 70%
Corn (Zea mays) [9]; [14]
  plant injury at 62.5 g/ha: 80%
Corn (Zea mays) [9]; [15]
  plant injury at 250 g/ha: 80%
[10]; [13]
  pest or weed control at 15.625 g/ha: 70%
[10]; [14]
  pest or weed control at 62.5 g/ha: 80%
[10]; [15]
  pest or weed control at 250 g/ha: 80%
[11]; [13]
  pest or weed control at 15.625 g/ha: 80%
[11]; [14]
  pest or weed control at 62.5 g/ha: 80%
[11]; [15]
  pest or weed control at 250 g/ha: 80%
[12]; [13]
  pest or weed control at 15.625 g/ha: 0%
[12]; [14]
  pest or weed control at 62.5 g/ha: 20%
[12]; [15]
  pest or weed control at 250 g/ha: 50%
